Results from patent publication US10696637B2, “Nitrogen-containing heterocyclic compound” (FUJIFILM Corporation, priority 2015, dated 2020).

The compounds below were run on CXCL10 production (assay: CXCL10 production inhibition test). Conditions: Endothelial cell; test compound 0.1 μmol/L; human umbilical vein-derived endothelial cells; TNFα 10 ng/mL; supernatant 72 hours after stimulation; ELISA; read-out: Rate of inhibition of CXCL10 production.
Type: cell-based
Protocol: (CXCL10 Production Inhibition Test)
0.5×10^4 or 1×10^4 human umbilical vein-derived endothelial cells were suspended in 100 μL of an EGM-2 BulletKit medium (without GA) or a Medium-200 medium supplemented with an EGM-2 SingleQuots kit (without GA), inoculated to a 96-well plate and cultured overnight. 100 μL of a solution of each test compound diluted with the same medium as that used in the inoculation was added to the cultured cells (final concentration of the test compound: 0.1 μmol/L). 1 hour thereafter, TNFα was added thereto at a final concentration of 10 ng/mL. 72 hours after the stimulation, the supernatant was recovered, and the amount of CXCL10 produced in the culture supernatant was determined using an ELISA kit (Peprotech, 900-109).
The rate of inhibition was calculated according to the following expression: Rate of inhibition (%)=100−(Amount of CXCL10 produced in the presence of the test compound/Amount of CXCL10 produced in the absence of the test compound)×100
`CCn1c(=O)cc(N2CCOCC2)c2cc(-n3ccnc3-c3ccccc3)ccc21` [Example 255] showed an inhibition at 0.1 µM of at least 50%. Compound `CCn1c(=O)cc(N2CCOCC2)c2cc(-n3cc(C)nc3-c3ccccc3)ccc21` [Example 256, 1-ethyl-6-(4-methyl-2-phenyl-1H-imidazol-1-yl)-4-(morpholin-4-yl)quinolin-2(1H)-one] has an inhibition at 0.1 µM of at least 50%. In the case of `CCn1c(=O)cc(N2CCOCC2)c2cc(-c3nccn3-c3ccccc3)ccc21` [Example 257, 1-ethyl-4-(morpholin-4-yl)-6-(1-phenyl-1H-imidazol-2-yl)quinolin-2(1H)-one], the inhibition at 0.1 µM is reported as at least 50%. `CCn1c(=O)cc(N2CCOCC2)c2cc(-c3ccccc3-c3ccccc3)ccc21` [Example 258, 6-(biphenyl-2-yl)-1-ethyl-4-(morpholin-4-yl)quinolin-2(1H)-one] was tested, and the inhibition at 0.1 µM was at least 50%. Compound `CCn1c(=O)cc(N2CCOCC2)c2cc(-n3c(-c4ccccc4)cn(CCN4CCCCC4)c3=O)ccc21` [Example 259, 1-ethyl-4-(morpholin-4-yl)-6-(2-oxo-5-phenyl-3-(2-(piperidin-1-yl)ethyl)-2,3-dihydro-1H-imidazol-1-yl)quinolin-2(1H)-one] has an inhibition at 0.1 µM of at least 50%. Compound `CCn1c(=O)cc(N2CCOCC2)c2cc(-n3c(-c4ccccc4)cn(CCN4CCOCC4)c3=O)ccc21` [Example 260, 1-ethyl-4-(morpholin-4-yl)-6-(3-(2-(morpholin-4-yl)ethyl)-2-oxo-5-phenyl-2,3-dihydro-1H-imidazol-1-yl)quinolin-2(1H)-one] has an inhibition at 0.1 µM of at least 50%. Work on `CCn1c(=O)cc(N2CCOCC2)c2cc(-n3c(-c4ccccc4)cn(CCN(C)C)c3=O)ccc21` [Example 261, 6-(3-(2-(dimethylamino)ethyl)-2-oxo-5-phenyl-2,3-dihydro-1H-imidazol-1-yl)-1-ethyl-4-(morpholin-4-yl)quinolin-2(1H)-one] yielded an inhibition at 0.1 µM of at least 50%. Work on `CCn1c(=O)cc(N2CCOCC2)c2cc(-n3c(-c4ccccc4)cn(CCO)c3=O)ccc21` [Example 262, 1-ethyl-6-(3-(2-hydroxyethyl)-2-oxo-5-phenyl-2,3-dihydro-1H-imidazol-1-yl)-4-(morpholin-4-yl) quinolin-2(1H)-one] yielded an inhibition at 0.1 µM of at least 50%. Work on `CCn1c(=O)cc(N2CCOCC2)c2cc(-n3c(-c4ccccc4)cn(CCOC)c3=O)ccc21` [Example 263, 1-ethyl-6-(3-(2-methoxyethyl)-2-oxo-5-phenyl-2,3-dihydro-1H-imidazol-1-yl)-4-(morpholin-4-yl) quinolin-2(1H)-one] yielded an inhibition at 0.1 µM of at least 50%. Work on `CCCCn1cc(-c2ccccc2)n(-c2ccc3c(c2)c(N2CCOCC2)cc(=O)n3CC)c1=O` [Example 264, 6-(3-butyl-2-oxo-5-pheynyl-2,3-dihydro-1H-imidazazol-1-yl)-1-ethyl-4-(morpholin-4-yl)quinolin-2(1H)-one] yielded an inhibition at 0.1 µM of at least 50%. For `CCCn1cc(-c2ccccc2)n(-c2ccc3c(c2)c(N2CCOCC2)cc(=O)n3CC)c1=O` [Example 265, 1-ethyl-4-(morpholin-4-yl)-6-(2-oxo-5-phenyl-3-propyl-2,3-dihydro-1H-imidazol-1-yl)quinolin-2(1H)-one], the inhibition at 0.1 µM was at least 50%. `CCn1cc(-c2ccccc2)n(-c2ccc3c(c2)c(N2CCOCC2)cc(=O)n3CC)c1=O` [Example 266, 1-ethyl-6-(3-ethyl-2-oxo-5-phenyl-2,3-dihydro-1H-imidazol-1-yl)-4-(morpholin-4-yl)quinolin-2(1H)-one] gave an inhibition at 0.1 µM of at least 50%. Compound `CCn1c(=O)cc(C2CC2)c2cc(-n3c(-c4ccc(C(F)(F)F)cc4)cn(C)c3=O)ccc21` [Example 267, 4-cyclopropyl-1-ethyl-6-(3-methyl-2-oxo-5-(4-(trifluoromethyl)phenyl)-2,3-dihydro-1H-imidazol-1-yl)quinolin-2(1H)-one] has an inhibition at 0.1 µM of at least 50%. Work on `CCn1c(=O)cc(C2CC2)c2cc(-n3c(-c4ccc(C(F)(F)F)cc4)c[nH]c3=O)ccc21` [Example 268, 4-cyclopropyl-1-ethyl-6-(2-oxo-5-(4-(trifluoromethyl)phenyl)-2,3-dihydro-1H-imidazol-1-yl)quinolin-2(1H)-one] yielded an inhibition at 0.1 µM of at least 50%. Compound `CCn1c(=O)cc(C2CC2)c2cc(-n3c(-c4ccc(Cl)cc4)cn(C)c3=O)ccc21` [Example 269, 6-(5-(4-chlorophenyl)-3-methyl-2-oxo-2,3-dihydro-1H-imidazol-1-yl)-4-cyclopropyl-1-ethylquinolin-2(1H)-one] has an inhibition at 0.1 µM of at least 50%. In the case of `CCn1c(=O)cc(N2CCOCC2)c2cc(-n3c(-c4ccc(C(F)(F)F)cc4)cn(C)c3=O)ccc21` [Example 270, 1-ethyl-6-(3-methyl-2-oxo-5-(4-(trifluoromethyl)phenyl)-2,3-dihydro-1H-imidazol-1-yl)-4-(morpholin-4-yl)quinolin-2(1H)-one], the inhibition at 0.1 µM is reported as at least 50%. With `CCn1c(=O)cc(C2CC2)c2cc(-n3c(-c4ccc(Cl)cc4)c[nH]c3=O)ccc21` [Example 271, 6-(5-(4-chlorophenyl)-2-oxo-2,3-dihydro-1H-imidazol-1-yl)-cyclopropyl-1-ethylquinolin-2(1H)-one] the inhibition at 0.1 µM was at least 50%. `CCn1c(=O)cc(N2CCOCC2)c2cc(-n3c(-c4ccc(C(F)(F)F)cc4)c[nH]c3=O)ccc21` [Example 272, 1-ethyl-6-(2-oxo-5-(4-(trifluoromethyl)phenyl)-2,3-dihydro-1H-imidazol-1-yl)-4-(morpholin-4-yl)quinolin-2(1H)-one] gave an inhibition at 0.1 µM of at least 50%. With `CCn1c(=O)cc(N2CCOCC2)c2cc(-n3c(-c4ccc(C)cc4)cn(C)c3=O)ccc21` [Example 273, 1-ethyl-6-(3-methyl-5-(4-methylphenyl)-2-oxo-2,3-dihydro-1H-imidazol-1-yl)-4-(morpholin-4-yl)quinolin-2(1H)-one] the inhibition at 0.1 µM was at least 50%. `CCn1c(=O)cc(N2CCOCC2)c2cc(-n3c(-c4ccc(C)cc4)c[nH]c3=O)ccc21` [Example 274] was tested, and the inhibition at 0.1 µM was at least 50%. Work on `CCn1c(=O)cc(C2CC2)c2cc(-n3c(-c4ccc(C)cc4)cn(C)c3=O)ccc21` [Example 275, 4-cyclopropyl-1-ethyl-6-(3-methyl-5-(4-methylphenyl)-2-oxo-2,3-dihydro-1H-imidazol-1-yl)quinolin-2(1H)-one] yielded an inhibition at 0.1 µM of at least 50%. `CCn1c(=O)cc(C2CC2)c2cc(-n3c(-c4ccc(C)cc4)c[nH]c3=O)ccc21` [Example 276, 4-cyclopropyl-1-ethyl-6-(5-(4-methylphenyl)-2-oxo-2,3-dihydro-1H-imidazol-1-yl)quinolin-2(1H)-one] gave an inhibition at 0.1 µM of at least 50%. In the case of `CCn1c(=O)cc(C2CC2)c2cc(-c3cccnc3-c3ccccc3)ccc21` [Example 278, 4-cyclopropyl-1-ethyl-6-(2-phenylpyridin-3-yl)quinolin-2(1H)-one], the inhibition at 0.1 µM is reported as at least 50%. Compound `CCn1c(=O)cc(N2CCOCC2)c2cc(-c3cccnc3-c3ccccc3)ccc21` [Example 279, 1-ethyl-4-(morpholin-4-yl)-6-(2-phenylpyridin-3-yl)quinolin-2(1H)-one] has an inhibition at 0.1 µM of at least 50%. `CCn1c(=O)cc(C2CC2)c2cc(N3C(=O)C(C)C(=O)N3c3ccccc3)ccc21` (centres unmarked) [Example 280, 1-(4-cyclopropyl-1-ethyl-2-oxo-1,2-dihydroquinolin-6-yl)-4-methyl-2-phenylpyrazolidine-3,5-dione] was tested, and the inhibition at 0.1 µM was at least 50%. In the case of `CCC1C(=O)N(c2ccccc2)N(c2ccc3c(c2)c(C2CC2)cc(=O)n3CC)C1=O` (centres unmarked) [Example 281, 1-(4-cyclopropyl-1-ethyl-2-oxo-1,2-dihydroquinolin-6-yl)-4-ethyl-2-phenylmazolidine-3,5-dione], the inhibition at 0.1 µM is reported as at least 50%.
